A word on the inhibition: it is the change of the read-out against control, counted positive when it falls.

The structures appear in SMILES notation. Active and inactive are the calls of the source. The calls are words filed in the database; no cut-off is given here.

Results on three molecules are retold here after ChEMBL document CHEMBL5696442, “Discovery of type II inhibitors of TGFβ-activated kinase 1 (TAK1) and mitogen-activated protein kinase kinase kinase kinase 2 (MAP4K2)” (J Med Chem, 2015).

Experiment [1] concerns the target TGF-beta receptor type-1 (Homo sapiens) (UniProt P36897). Put plainly: Inhibition of TGFBR1 (unknown origin) at 1 uM by Ambit Kinomescan binding assay relative to control.
Experiment [2] has as its target Microtubule-associated serine/threonine-protein kinase 2 (Homo sapiens) (UniProt Q6P0Q8). Nature of the experiment: Inhibition of MAST2 Lys2 labeling site in human A-375 cells at 0.05 uM by KiNativ Profiling analysis relative to control. The class given is cell-based.
In experiment [3] the target is Mast/stem cell growth factor receptor Kit (Homo sapiens) (UniProt P10721). Put plainly: Inhibition of KIT (unknown origin) at 1 uM by Ambit Kinomescan binding assay relative to control; values are per cent of control.
Mast/stem cell growth factor receptor Kit (Homo sapiens), sequence (P10721 whole entry): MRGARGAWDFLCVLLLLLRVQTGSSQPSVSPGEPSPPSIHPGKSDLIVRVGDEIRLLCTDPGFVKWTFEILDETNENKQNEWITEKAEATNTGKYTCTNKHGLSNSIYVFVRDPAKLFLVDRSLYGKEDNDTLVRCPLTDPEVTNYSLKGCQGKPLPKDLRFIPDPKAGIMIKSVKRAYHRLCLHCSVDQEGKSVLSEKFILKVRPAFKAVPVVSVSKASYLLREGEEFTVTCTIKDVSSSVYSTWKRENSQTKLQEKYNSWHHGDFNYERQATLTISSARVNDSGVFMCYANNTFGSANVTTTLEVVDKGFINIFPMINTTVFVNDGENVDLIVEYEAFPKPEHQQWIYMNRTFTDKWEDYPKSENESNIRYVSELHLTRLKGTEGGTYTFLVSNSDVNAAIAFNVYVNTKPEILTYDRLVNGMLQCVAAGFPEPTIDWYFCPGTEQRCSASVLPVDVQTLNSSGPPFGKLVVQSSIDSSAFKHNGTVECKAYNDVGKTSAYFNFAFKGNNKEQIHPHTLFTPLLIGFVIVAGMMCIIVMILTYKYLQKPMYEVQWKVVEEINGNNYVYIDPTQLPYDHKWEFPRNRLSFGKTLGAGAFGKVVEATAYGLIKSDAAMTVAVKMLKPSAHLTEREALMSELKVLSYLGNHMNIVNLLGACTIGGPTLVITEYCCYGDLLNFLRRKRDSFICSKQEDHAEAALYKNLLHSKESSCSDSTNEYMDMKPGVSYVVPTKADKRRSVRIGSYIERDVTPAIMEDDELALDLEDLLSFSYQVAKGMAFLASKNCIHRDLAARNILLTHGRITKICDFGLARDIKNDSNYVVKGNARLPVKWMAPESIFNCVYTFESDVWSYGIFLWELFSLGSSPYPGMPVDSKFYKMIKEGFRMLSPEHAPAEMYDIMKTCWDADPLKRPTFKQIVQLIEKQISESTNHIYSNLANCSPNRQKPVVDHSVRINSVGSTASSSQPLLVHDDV
Experiment [4] addresses T1, Dual specificity mitogen-activated protein kinase kinase 3 (Homo sapiens) (UniProt P46734).
T1 sequence (whole entry): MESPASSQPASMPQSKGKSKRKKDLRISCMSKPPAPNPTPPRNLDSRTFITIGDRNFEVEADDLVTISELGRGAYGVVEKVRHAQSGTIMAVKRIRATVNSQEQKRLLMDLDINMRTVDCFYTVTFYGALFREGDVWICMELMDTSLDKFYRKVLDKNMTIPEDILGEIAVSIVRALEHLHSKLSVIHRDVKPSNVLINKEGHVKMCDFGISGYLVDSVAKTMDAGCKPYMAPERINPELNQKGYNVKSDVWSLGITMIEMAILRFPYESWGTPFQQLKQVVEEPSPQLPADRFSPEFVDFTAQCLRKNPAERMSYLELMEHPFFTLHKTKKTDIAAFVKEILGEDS
Put plainly: Inhibition of MEK3 (unknown origin) at 1 uM by Ambit Kinomescan binding assay relative to control; values are per cent of control.

In experiment [5] the target is Mitogen-activated protein kinase kinase kinase 20 (Homo sapiens, UniProt Q9NYL2). Put plainly: Inhibition of ZAK Lys1 labeling site in human A-375 cells at 5 uM by KiNativ Profiling analysis relative to control. The class given is cell-based.
Mitogen-activated protein kinase kinase kinase 20, sequence (Q9NYL2 2-800 limits assumed): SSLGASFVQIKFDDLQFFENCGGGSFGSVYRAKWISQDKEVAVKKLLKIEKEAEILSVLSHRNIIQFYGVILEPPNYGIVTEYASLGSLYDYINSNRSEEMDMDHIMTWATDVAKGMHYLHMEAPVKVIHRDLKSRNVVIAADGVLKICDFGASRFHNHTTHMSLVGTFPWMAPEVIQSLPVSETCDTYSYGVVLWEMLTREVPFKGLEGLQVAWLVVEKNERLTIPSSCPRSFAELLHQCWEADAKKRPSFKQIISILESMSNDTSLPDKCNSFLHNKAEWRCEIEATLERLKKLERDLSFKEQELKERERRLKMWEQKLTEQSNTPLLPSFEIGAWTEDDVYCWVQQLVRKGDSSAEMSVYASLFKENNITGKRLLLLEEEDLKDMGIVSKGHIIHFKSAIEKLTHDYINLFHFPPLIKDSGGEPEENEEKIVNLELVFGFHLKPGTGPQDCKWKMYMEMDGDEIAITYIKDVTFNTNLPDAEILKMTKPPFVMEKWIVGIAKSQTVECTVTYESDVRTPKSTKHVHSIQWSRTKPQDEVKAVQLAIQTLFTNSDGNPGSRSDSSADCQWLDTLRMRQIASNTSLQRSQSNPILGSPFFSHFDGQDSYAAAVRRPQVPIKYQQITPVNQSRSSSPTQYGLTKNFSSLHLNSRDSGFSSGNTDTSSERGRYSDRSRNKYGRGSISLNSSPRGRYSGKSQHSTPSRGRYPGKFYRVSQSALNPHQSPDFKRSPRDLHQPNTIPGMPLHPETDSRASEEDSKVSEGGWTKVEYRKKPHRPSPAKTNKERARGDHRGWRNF
Experiment [6] relates to Epidermal growth factor receptor (Homo sapiens), P00533 [UNDEFINED MUTATION]. Nature of the experiment: Inhibition of EGFR E746-A750del mutant (unknown origin) at 10 uM by Ambit Kinomescan binding assay relative to control.
Experiment [7] addresses Hepatocyte growth factor receptor (Homo sapiens) (UniProt P08581). Nature of the experiment: Inhibition of MET (unknown origin) at 10 uM by Ambit Kinomescan binding assay.
Experiment [8] concerns the target T2, Dual specificity mitogen-activated protein kinase kinase 4 (Homo sapiens) (UniProt P45985).
T2 sequence (whole entry): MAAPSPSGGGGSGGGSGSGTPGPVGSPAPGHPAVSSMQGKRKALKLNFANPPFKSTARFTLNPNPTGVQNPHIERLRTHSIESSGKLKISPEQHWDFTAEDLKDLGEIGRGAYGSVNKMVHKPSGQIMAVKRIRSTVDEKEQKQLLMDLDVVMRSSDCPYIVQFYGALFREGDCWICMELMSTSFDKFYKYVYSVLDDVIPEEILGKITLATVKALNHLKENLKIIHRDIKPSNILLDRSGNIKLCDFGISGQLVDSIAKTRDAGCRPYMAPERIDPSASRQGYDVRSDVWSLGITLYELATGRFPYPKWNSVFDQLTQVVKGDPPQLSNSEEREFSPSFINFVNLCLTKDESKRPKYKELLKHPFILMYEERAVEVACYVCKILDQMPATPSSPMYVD
Put plainly: Inhibition of MAP2K4 Lys1 labeling site in human A-375 cells at 0.5 uM by KiNativ Profiling analysis relative to control. The class given is cell-based.

Experiment [9] addresses Tyrosine-protein kinase ABL2 (Homo sapiens, UniProt P42684). Nature of the experiment: Inhibition of ARG Lys1 labeling site in human A-375 cells at 0.05 uM by KiNativ Profiling analysis relative to control. The class given is cell-based.
Experiment [10] deals with T3, Mitogen-activated protein kinase kinase kinase 3 (Homo sapiens) (UniProt Q99759).
T3 sequence (whole entry): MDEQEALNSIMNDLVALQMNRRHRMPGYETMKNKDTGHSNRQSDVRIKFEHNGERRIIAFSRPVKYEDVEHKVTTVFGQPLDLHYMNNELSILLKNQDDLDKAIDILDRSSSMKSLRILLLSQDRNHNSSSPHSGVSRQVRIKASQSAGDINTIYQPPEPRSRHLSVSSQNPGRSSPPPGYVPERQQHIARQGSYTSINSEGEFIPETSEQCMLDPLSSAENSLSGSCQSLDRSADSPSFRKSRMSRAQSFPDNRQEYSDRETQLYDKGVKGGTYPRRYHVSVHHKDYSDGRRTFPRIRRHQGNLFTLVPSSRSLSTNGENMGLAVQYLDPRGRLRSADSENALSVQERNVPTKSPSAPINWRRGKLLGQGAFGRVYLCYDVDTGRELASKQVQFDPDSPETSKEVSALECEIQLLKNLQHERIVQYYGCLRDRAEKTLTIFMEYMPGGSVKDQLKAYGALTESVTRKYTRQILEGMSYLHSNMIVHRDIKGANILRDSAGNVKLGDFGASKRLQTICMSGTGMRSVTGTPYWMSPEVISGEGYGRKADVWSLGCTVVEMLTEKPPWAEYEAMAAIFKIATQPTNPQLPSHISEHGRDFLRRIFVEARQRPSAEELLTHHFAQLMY
Put plainly: Inhibition of MAP3K3 Lys2 labeling site in human A-375 cells at 0.05 uM by KiNativ Profiling analysis relative to control. The class given is cell-based.

The target in experiment [11] is Cyclin-dependent kinase 14 (Homo sapiens) (UniProt O94921). Put plainly: Inhibition of PFTAIRE1 Lys1 labeling site in human A-375 cells at 0.05 uM by KiNativ Profiling analysis relative to control.
Cyclin-dependent kinase 14 (Homo sapiens), sequence (O94921 whole entry, looked up): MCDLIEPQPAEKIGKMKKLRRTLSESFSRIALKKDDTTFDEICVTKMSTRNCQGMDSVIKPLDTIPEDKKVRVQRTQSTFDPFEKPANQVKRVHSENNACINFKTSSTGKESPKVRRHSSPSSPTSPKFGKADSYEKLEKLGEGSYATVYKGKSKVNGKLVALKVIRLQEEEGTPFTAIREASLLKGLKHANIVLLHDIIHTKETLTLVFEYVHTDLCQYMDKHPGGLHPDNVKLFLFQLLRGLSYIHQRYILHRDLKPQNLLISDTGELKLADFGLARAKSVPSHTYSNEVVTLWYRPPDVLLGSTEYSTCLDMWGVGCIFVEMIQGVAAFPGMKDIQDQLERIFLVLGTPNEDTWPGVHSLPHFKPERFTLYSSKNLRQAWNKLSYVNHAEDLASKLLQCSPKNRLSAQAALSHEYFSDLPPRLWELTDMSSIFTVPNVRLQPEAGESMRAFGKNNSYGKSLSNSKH
The target of experiment [12] is T4, Serine/threonine-protein kinase Chk1 (Homo sapiens) (UniProt O14757).
T4 sequence (whole entry): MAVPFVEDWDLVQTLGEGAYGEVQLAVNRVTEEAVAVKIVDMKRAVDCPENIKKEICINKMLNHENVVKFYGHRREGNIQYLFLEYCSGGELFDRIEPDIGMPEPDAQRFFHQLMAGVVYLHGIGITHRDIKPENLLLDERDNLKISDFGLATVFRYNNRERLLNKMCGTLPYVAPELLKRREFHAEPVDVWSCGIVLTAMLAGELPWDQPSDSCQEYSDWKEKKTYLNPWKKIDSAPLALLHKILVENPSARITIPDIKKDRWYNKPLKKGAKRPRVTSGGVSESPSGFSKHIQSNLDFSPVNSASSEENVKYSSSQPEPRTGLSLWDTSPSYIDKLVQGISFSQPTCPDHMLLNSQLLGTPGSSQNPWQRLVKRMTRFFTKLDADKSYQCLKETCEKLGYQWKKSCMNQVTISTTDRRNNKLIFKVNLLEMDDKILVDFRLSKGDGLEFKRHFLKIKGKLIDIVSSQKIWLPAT
Put plainly: Inhibition of CHK1 Lys2 labeling site in human Huh-7 cell lysate at 1 uM by KiNativ Profiling analysis relative to control. The class given is subcellular.

Experiment [13] deals with Serine/threonine-protein kinase 4 (Homo sapiens) (UniProt Q13043). Put plainly: Inhibition of MST1 Lys1 labeling site harbouring AIHKETGQIVAIKQVPVESDLQEIIK in human Huh-7 cells at 1 uM by KiNativ Profiling analysis relative to control.
Serine/threonine-protein kinase 4 (Homo sapiens), sequence (Q13043 whole entry, looked up): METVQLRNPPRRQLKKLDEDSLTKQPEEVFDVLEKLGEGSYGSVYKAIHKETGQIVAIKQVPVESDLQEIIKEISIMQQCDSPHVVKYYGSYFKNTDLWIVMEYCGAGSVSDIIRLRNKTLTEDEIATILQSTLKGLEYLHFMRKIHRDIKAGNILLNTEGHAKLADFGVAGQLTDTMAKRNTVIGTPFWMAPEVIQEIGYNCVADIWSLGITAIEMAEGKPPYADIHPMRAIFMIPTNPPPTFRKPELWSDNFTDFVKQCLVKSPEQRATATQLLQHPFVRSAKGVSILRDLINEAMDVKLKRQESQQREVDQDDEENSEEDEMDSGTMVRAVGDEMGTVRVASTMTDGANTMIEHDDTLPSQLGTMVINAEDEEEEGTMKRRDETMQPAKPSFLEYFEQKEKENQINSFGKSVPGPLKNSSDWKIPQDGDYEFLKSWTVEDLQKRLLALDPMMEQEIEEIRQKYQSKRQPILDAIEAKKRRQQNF

Hepatocyte growth factor receptor (Homo sapiens), sequence (P08581 whole entry): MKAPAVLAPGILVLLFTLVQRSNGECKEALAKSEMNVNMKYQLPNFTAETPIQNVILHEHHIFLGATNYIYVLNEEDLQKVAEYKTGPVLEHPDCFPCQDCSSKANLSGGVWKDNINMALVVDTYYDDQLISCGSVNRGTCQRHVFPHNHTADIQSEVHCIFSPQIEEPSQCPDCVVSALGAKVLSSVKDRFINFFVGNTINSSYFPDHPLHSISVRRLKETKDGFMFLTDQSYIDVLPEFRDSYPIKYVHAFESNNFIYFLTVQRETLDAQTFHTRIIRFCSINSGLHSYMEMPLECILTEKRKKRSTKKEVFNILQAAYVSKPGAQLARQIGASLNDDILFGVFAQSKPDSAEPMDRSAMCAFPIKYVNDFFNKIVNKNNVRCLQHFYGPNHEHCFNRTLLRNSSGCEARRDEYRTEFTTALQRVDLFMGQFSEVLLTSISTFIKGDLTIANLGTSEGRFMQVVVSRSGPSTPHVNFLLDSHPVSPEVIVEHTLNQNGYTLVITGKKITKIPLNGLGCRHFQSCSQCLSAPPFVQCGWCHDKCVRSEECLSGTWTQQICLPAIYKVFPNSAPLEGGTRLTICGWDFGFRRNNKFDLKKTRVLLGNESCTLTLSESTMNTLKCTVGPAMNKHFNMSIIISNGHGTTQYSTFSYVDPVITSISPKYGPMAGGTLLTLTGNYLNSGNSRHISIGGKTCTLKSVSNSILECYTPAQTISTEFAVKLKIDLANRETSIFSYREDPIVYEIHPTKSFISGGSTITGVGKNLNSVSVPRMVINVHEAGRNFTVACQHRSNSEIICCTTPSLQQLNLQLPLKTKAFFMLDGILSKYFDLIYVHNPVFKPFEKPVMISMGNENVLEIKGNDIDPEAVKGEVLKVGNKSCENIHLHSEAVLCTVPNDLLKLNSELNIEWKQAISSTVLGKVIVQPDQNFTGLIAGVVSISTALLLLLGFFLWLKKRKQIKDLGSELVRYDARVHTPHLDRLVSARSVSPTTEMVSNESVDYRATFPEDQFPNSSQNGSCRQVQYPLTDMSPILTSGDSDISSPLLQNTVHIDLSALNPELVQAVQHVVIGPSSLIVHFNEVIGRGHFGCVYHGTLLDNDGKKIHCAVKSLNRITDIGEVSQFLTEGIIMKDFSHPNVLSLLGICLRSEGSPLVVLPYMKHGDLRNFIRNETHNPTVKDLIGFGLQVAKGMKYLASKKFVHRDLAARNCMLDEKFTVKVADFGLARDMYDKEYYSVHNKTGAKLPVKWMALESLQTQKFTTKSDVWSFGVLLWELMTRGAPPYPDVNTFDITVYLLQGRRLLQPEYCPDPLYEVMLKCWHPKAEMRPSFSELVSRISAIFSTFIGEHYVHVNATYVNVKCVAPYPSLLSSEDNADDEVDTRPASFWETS
TGF-beta receptor type-1 (Homo sapiens), sequence (P36897 whole entry): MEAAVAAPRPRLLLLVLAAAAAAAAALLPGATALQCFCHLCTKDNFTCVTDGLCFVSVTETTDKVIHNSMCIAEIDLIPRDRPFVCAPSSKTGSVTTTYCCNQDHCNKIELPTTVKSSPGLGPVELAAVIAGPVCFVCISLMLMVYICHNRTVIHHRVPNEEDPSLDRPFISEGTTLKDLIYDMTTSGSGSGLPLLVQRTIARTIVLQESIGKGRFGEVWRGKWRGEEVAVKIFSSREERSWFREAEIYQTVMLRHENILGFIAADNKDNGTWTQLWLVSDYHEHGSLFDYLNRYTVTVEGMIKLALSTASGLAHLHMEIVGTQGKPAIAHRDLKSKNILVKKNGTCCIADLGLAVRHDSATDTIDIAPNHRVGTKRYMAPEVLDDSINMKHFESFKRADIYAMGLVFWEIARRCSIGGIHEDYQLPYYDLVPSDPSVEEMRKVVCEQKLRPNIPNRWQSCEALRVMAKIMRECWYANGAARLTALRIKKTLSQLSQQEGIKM

`CCN1CCN(Cc2ccc(NC(=O)c3ccc(C)c(/C=C/c4cnc5[nH]ccc5c4OC)c3)cc2C(F)(F)F)CC1`: the inhibition was 100% in experiment [1] and -1.4% in experiment [2]. Also, the residual activity in [3] was 0.3%; in experiment [4], 62%.

`CCN1CCN(Cc2ccc(NC(=O)c3ccc(C)c(Oc4ccnc5[nH]ccc45)c3)cc2C(F)(F)F)CC1`: the inhibition was 98.1% in [5]; 8.4% in [6]; -4% in [8]; 84.8% in experiment [9]; 7.6% in [10]; 8.3% in [11]. Moreover, the inhibition result in experiment [7] was “inactive”.

On to `CNc1cc(Oc2cc(C(=O)Nc3cc(N4CCN(C)CC4)cc(C(F)(F)F)c3)ccc2C)ncn1`, for which the values for the inhibition in experiment [12] and in [13] were -1.1% and 9.9%, respectively.
